≈ marks a conversion by molar mass, not a printed value. Where two headings read alike, the source gives them in different places.
How the values were obtained:
Assay type in all cases: cell-based
[1] = tested on: Staphylococcus aureus NCIM 2079; experiment: microbe, parasite or virus in culture; conditions: Staphylococcus aureus NCIM 2079, 24 h at 37° C.
[2] = tested on: Bacillus subtilis NCIM 2010; experiment: microbe, parasite or virus in culture; conditions: Bacillus subtilis NCIM 2010, 24 h at 37° C.
[3] = tested on: Escherichia coli NCIM 2065; experiment: microbe, parasite or virus in culture; conditions: Escherichia coli NCIM 2065, 24 h at 37° C.
[4] = tested on: Serratia marcescens NCIM 2919; experiment: microbe, parasite or virus in culture; conditions: Serratia marcescens NCIM 2919, 24 h at 37° C.
[5] = tested on: Pseudomonas desmolyticum NCIM 2112; experiment: microbe, parasite or virus in culture; conditions: Pseudomonas desmolyticum NCIM 2112, 24 h at 37° C.
[6] = tested on: Mycobacterium smegmatis NCIM 5138; experiment: microbe, parasite or virus in culture; conditions: Mycolicibacterium smegmatis, NCIM5138; Mycobacterium smegmatis NCIM 5138, 48 h
[7] = tested on: Candida albicans NCIM 3557; experiment: Antifungal MIC, RPMI-1640, resazurin; conditions: Candida albicans NCIM 3557, 48 to 72 h at 28° C.
[8] = tested on: Fusarium verticillioides BIONCL4; experiment: Antifungal MIC, RPMI-1640, resazurin; conditions: Fusarium verticillioides BIONCL4, 48 to 72 h at 28° C.
[9] = tested on: Fusarium graminearum MTCC1893; experiment: microbe, parasite or virus in culture
[10] = tested on: Aspergillus niger BIONCL 12; experiment: Antifungal MIC, RPMI-1640, resazurin; conditions: Aspergillus niger BIONCL 12, 48 to 72 h at 28° C.
[11] = tested on: Gram-positive and Gram-negative bacteria; experiment: Antibacterial MIC, whole panel of tested strains; conditions: span over all tested bacterial strains; read-out: MICs against tested bacterial strains
fungal strains tested = experiment: microbe, parasite or virus in culture; conditions: Fusarium graminearum, read-out: MIC against the fungal strains tested
[12] = NCIM3557, read-out: MIC (converted)
[13] = Fusarium graminearum, MTCC1893, Fusarium graminearum MTCC1893, 48 to 72 h at 28° C.

NC(=O)c1cnccn1 [C-3, Pyrazine-2-carboxamide]
MIC ([1]; NCIM2079, read-out: MIC): 25 µg/mL (≈ 203 µM)
MIC [1]: 25.0 µg/mL (≈ 203 µM)
MIC [2]: 25.0 µg/mL (≈ 203 µM)
MIC ([2]; NCIM2010, read-out: MIC): 25 µg/mL (≈ 203 µM)
MIC [3]: 25.0 µg/mL (≈ 203 µM)
MIC ([3]; NCIM2065, read-out: MIC): 25 µg/mL (≈ 203 µM)
MIC ([4]; NCIM2919, read-out: MIC): 25 µg/mL (≈ 203 µM)
MIC [4]: 25.0 µg/mL (≈ 203 µM)
MIC ([5]; NCIM2112, read-out: MIC): 25 µg/mL (≈ 203 µM)
MIC [5]: 25.0 µg/mL (≈ 203 µM)
MIC [6]: 12.5 µg/mL (≈ 102 µM)
MIC [7]: 12.5 µg/mL (≈ 102 µM)
MIC [7, 12]: 12.5 µg/mL (≈ 102 µM)
MIC [8]: 12.5 µg/mL (≈ 102 µM)
MIC ([8]; read-out: MIC (converted)): 12.5 µg/mL (≈ 102 µM)
MIC ([9]; Fusarium graminearum MTCC1893, 48 to 72 h at 28° C.): 50.0 µg/mL (≈ 406 µM)
MIC [9, 13]: 25 µg/mL (≈ 203 µM)
MIC [10]: 25.0 µg/mL (≈ 203 µM)
MIC ([10]; BIONCL12, read-out: MIC): 25 µg/mL (≈ 203 µM)
MIC [11]: 1.56 to 25 µg/mL (≈ 12.7 to 203 µM)

CC(C)(C)c1ccc(O)c(C(C)(C)C)c1 [C-1, 2,4-di-tert-butylphenol]
MIC ([1]; NCIM2079, read-out: MIC): 6.25 µg/mL (≈ 30.3 µM)
MIC ([2]; NCIM2010, read-out: MIC): 3.12 µg/mL (≈ 15.1 µM)
MIC ([3]; NCIM2065, read-out: MIC): 3.12 µg/mL (≈ 15.1 µM)
MIC ([4]; NCIM2919, read-out: MIC): 1.56 µg/mL (≈ 7.56 µM)
MIC ([5]; NCIM2112, read-out: MIC): 6.25 µg/mL (≈ 30.3 µM)
MIC [6]: 3.12 µg/mL (≈ 15.1 µM)
MIC [7, 12]: 12.5 µg/mL (≈ 60.6 µM)
MIC ([8]; read-out: MIC (converted)): 6.25 µg/mL (≈ 30.3 µM)
MIC [9, 13]: 6.25 µg/mL (≈ 30.3 µM)
MIC [10]: 12.50 µg/mL (≈ 60.6 µM)
MIC ([10]; BIONCL12, read-out: MIC): 12.5 µg/mL (≈ 60.6 µM)
MIC [11]: 1.56 to 25 µg/mL (≈ 7.56 to 121 µM)

CC1=C(O)C(=O)C(O)CO1 (centres unmarked) [C-2, 3,5-dihydroxy-6-methyl-2,3-dihydro-4H-pyran-4-one]
MIC ([1]; NCIM2079, read-out: MIC): 3.12 µg/mL (≈ 21.6 µM)
MIC ([2]; NCIM2010, read-out: MIC): 6.25 µg/mL (≈ 43.4 µM)
MIC ([3]; NCIM2065, read-out: MIC): 6.25 µg/mL (≈ 43.4 µM)
MIC ([4]; NCIM2919, read-out: MIC): 3.12 µg/mL (≈ 21.6 µM)
MIC ([5]; NCIM2112, read-out: MIC): 6.25 µg/mL (≈ 43.4 µM)
MIC [6]: 12.5 µg/mL (≈ 86.7 µM)
MIC [7, 12]: 3.12 µg/mL (≈ 21.6 µM)
MIC ([8]; read-out: MIC (converted)): 3.12 µg/mL (≈ 21.6 µM)
MIC [9, 13]: 6.25 µg/mL (≈ 43.4 µM)
MIC ([10]; BIONCL12, read-out: MIC): 3.12 µg/mL (≈ 21.6 µM)
MIC [11]: 1.56 to 25 µg/mL (≈ 10.8 to 173 µM)
MIC (fungal strains tested): 3.12 to 6.25 µg/mL (≈ 21.6 to 43.4 µM)

— patent US20260231992A1, “A PROCESS FOR MYCOTOXIN DETOXIFICATION USING LACTOCOCCUS LACTIS” (priority 2023, published 2026)
